Results from ChEMBL document CHEMBL6096723, “Discovery of novel capsaicin analogs as TRPV1 inhibitors for the treatment of idiopathic pulmonary fibrosis” (Eur J Med Chem, 2025).
The source made the active and inactive calls. No cut-off for these calls is given here.

Tests used:
NIH3T3 [1] = assay: Inhibition of TGFbeta-induced ERK1/2 phosphorylation in mouse NIH3T3 cells at 1 to 10 uM by Western blot analysis; type: functional, cell-based; conditions: dose 1-10 µM
[2] = Tmax in Sprague-Dawley rat at 50 mg/kg, ip measured upto 4 hrs by UPLC-MS/MS analysis; type: ADME, organism-based; conditions: in vivo
[3] = AUMC(0 to infinity) in Sprague-Dawley rat at 50 mg/kg, ip measured upto 4 hrs by UPLC-MS/MS analysis; type: ADME, organism-based; conditions: in vivo
[4] = AUC(0 to t) in Sprague-Dawley rat at 50 mg/kg, ip measured upto 4 hrs by UPLC-MS/MS analysis; type: ADME, organism-based; conditions: in vivo
[5] = Acute toxicity in Kunming male mouse assessed as Direct bilirubin (D-Bil) level at 180 mg/kg, ip measured after 14 days (reference value: 6.21 micromol/L); type: organism-based; conditions: in vivo, 336 h, time 14 day
[6] = Acute toxicity in Kunming female mouse assessed as Albumin (ALB) level at 180 mg/kg, ip measured after 14 days (reference value: 35.8 g/L); type: organism-based; conditions: in vivo, 336 h, time 14 day
Mus musculus [7] = assay: Anti-fibrotic activity against bleomycin-induced pulmonary fibrosis mouse model assessed as increase in survival of mouse at 10 to 20 mg/kg, ip administered every alternative day for 8 to 21 days after modeling; type: functional, organism-based; conditions: dose 10-20 mg/kg, time 8-21 day
Mus musculus [8] = assay: Anti-pulmonary fibrotic activity against bleomycin induced pulmonary fibrosis mouse model assessed as reduction in inflammatory cell infiltration at 10 to 20 mg/kg, ip administered every alternative day for 8 to 21 days after modeling; type: functional, organism-based; conditions: dose 10-20 mg/kg, time 8-21 day
[9] = AUMC(0 to infinity) in Sprague-Dawley rat at 50 mg/kg, iv measured upto 4 hrs by UPLC-MS/MS analysis; type: ADME, organism-based; conditions: in vivo
Rattus norvegicus = assay: Cz in Sprague-Dawley rat at 50 mg/kg, ip measured upto 4 hrs by UPLC-MS/MS analysis; type: ADME, organism-based; conditions: in vivo
[10] = Toxicity in bleomycin-induced pulmonary fibrosis mouse model assessed as body weight change at 10 to 20 mg/kg, ip administered every alternative day for 8 to 21 days after modeling; type: organism-based; conditions: in vivo, dose lower 10 mg/kg, time lower 8 day, dose upper 20 mg/kg, time upper 21 day
[11] = target: Transient receptor potential cation channel subfamily V member 1 (Mus musculus) (UniProt Q704Y3); assay: Thermal stabilization of TRPV1 in mouse NIH3T3 cells assessed as reduction in TRPV1 degradation at 10 uM at 40 to 65 degreeC measured after 30 mins by CETSA; type: cell-based
[12] = MRT(0 to infinity) in Sprague-Dawley rat at 50 mg/kg, po measured upto 4 hrs by UPLC-MS/MS analysis; type: ADME, organism-based; conditions: in vivo
[13] = target: Transient receptor potential cation channel subfamily V member 1 (Homo sapiens) (UniProt Q8NER1); assay: Inhibition of TRPV1 (unknown origin) overexpressed in HEK-293T cells assessed as reduction in calcium level measured after 24 hrs by Fluo-4 calcium ion detection kit; type: cell-based
[14] = Acute toxicity in Kunming male mouse assessed as Alanine aminotransferase (ALT) level at 180 mg/kg, ip measured after 14 days (reference value: 55.3 U/L); type: organism-based; conditions: in vivo, 336 h, time 14 day
[15] = VRT(0 to t) in Sprague-Dawley rat at 50 mg/kg, ip measured upto 4 hrs by UPLC-MS/MS analysis; type: ADME, organism-based; conditions: in vivo
[16] = AUMC(0 to t) in Sprague-Dawley rat at 50 mg/kg, iv measured upto 4 hrs by UPLC-MS/MS analysis; type: ADME, organism-based; conditions: in vivo
[17] = Acute toxicity in Kunming female mouse assessed as Total bilirubin (T-Bil) level at 180 mg/kg, ip measured after 14 days (reference value: 10.79 micromol/L); type: organism-based; conditions: in vivo, 336 h, time 14 day
[18] = Acute toxicity in Kunming male mouse assessed as Aspartate aminotransferase (AST) level at 180 mg/kg, ip measured after 14 days (reference value: 116.7 U/L); type: organism-based; conditions: in vivo, 336 h, time 14 day
[19] = Clearance in Sprague-Dawley rat at 50 mg/kg, iv measured upto 4 hrs by UPLC-MS/MS analysis; type: ADME, organism-based; conditions: in vivo
[20] = Acute toxicity in Kunming mouse assessed as organ lesions in kidney at 180 mg/kg, ip measured after 14 days by H and E staining based assay; type: organism-based; conditions: in vivo, 336 h, time 14 day
Mus musculus [21] = assay: Anti-pulmonary fibrotic activity against bleomycin-induced pulmonary fibrosis mouse model assessed as inhibition of Smad2 phosphorylation in lung tissue at 10 to 20 mg/kg, ip administered every alternative day for 8 to 21 days after modeling by immunohistochemical staining based assay; type: functional, organism-based; conditions: dose 10-20 mg/kg, time 8-21 day
[22] = MRT(0 to t) in Sprague-Dawley rat at 50 mg/kg, po measured upto 4 hrs by UPLC-MS/MS analysis; type: ADME, organism-based; conditions: in vivo
[23] = AUC(0 to infinity) in Sprague-Dawley rat at 50 mg/kg, ip measured upto 4 hrs by UPLC-MS/MS analysis; type: ADME, organism-based; conditions: in vivo
[24] = target: Transient receptor potential cation channel subfamily V member 1 (Mus musculus) (UniProt Q704Y3); assay: Thermal stabilization of TRPV1 in mouse NIH3T3 cells assessed as reduction in TRPV1 degradation at 60 degreeC measured after 30 mins by CETSA; type: cell-based; conditions: dose 1-50 µM
[25] = Acute toxicity in Kunming mouse assessed as organ lesions in heart at 180 mg/kg, ip measured after 14 days by H and E staining based assay; type: organism-based; conditions: in vivo, 336 h, time 14 day
[26] = Acute toxicity in Kunming male mouse assessed as Albumin (ALB) level at 180 mg/kg, ip measured after 14 days (reference value: 32.6 g/L); type: organism-based; conditions: in vivo, 336 h, time 14 day
[27] = VRT(0 to t) in Sprague-Dawley rat at 50 mg/kg, po measured upto 4 hrs by UPLC-MS/MS analysis; type: ADME, organism-based; conditions: in vivo
[28] = MRT(0 to infinity) in Sprague-Dawley rat at 50 mg/kg, iv measured upto 4 hrs by UPLC-MS/MS analysis; type: ADME, organism-based; conditions: in vivo
[29] = Cytotoxicity against mouse NIH3T3 cells assessed as survival rate at 10 uM measured after 24 hrs by CCK-8 assay relative to control; type: toxicity, cell-based; conditions: read-out: Survival
[30] = Acute toxicity in Kunming female mouse assessed as Aspartate aminotransferase (AST) level at 180 mg/kg, ip measured after 14 days (reference value: 116.2 U/L); type: organism-based; conditions: in vivo, 336 h, time 14 day
NIH3T3 [31] = assay: Inhibition of TGFbeta-induced p38 phosphorylation in mouse NIH3T3 cells at 1 to 10 uM by Western blot analysis; type: functional, cell-based; conditions: dose 1-10 µM
[32] = Acute toxicity in Kunming male mouse assessed as Uric acid (UA) level at 180 mg/kg, ip measured after 14 days (reference value: 264.8 micromol/L); type: organism-based; conditions: in vivo, 336 h, time 14 day
Mus musculus [33] = assay: Anti-fibrotic activity against bleomycin-induced pulmonary fibrosis mouse model assessed as increase in forced vital capacity (FVC) at 10 to 20 mg/kg, ip administered every alternative day for 8 to 21 days after modeling; type: functional, organism-based; conditions: dose 10-20 mg/kg, time 8-21 day
Mus musculus [34] = assay: Anti-fibrotic activity against bleomycin-induced pulmonary fibrosis mouse model assessed as increase in lung compliance at 10 to 20 mg/kg, ip administered every alternative day for 8 to 21 days after modeling; type: functional, organism-based; conditions: dose 10-20 mg/kg, time 8-21 day
NIH3T3 [35] = assay: Inhibition of TGFbeta1-induced proliferation of mouse NIH3T3 cells assessed as colony formation at 10 uM measured after 7 to 14 days by Crystal violet staining based assay; type: functional, cell-based; conditions: time 7-14 day
[36] = Oral bioavailability in Sprague-Dawley rat at 50 mg/kg measured upto 4 hrs by UPLC-MS/MS analysis; type: ADME, organism-based; conditions: in vivo

Transient receptor potential cation channel subfamily V member 1 (Mus musculus), sequence (Q704Y3 whole entry): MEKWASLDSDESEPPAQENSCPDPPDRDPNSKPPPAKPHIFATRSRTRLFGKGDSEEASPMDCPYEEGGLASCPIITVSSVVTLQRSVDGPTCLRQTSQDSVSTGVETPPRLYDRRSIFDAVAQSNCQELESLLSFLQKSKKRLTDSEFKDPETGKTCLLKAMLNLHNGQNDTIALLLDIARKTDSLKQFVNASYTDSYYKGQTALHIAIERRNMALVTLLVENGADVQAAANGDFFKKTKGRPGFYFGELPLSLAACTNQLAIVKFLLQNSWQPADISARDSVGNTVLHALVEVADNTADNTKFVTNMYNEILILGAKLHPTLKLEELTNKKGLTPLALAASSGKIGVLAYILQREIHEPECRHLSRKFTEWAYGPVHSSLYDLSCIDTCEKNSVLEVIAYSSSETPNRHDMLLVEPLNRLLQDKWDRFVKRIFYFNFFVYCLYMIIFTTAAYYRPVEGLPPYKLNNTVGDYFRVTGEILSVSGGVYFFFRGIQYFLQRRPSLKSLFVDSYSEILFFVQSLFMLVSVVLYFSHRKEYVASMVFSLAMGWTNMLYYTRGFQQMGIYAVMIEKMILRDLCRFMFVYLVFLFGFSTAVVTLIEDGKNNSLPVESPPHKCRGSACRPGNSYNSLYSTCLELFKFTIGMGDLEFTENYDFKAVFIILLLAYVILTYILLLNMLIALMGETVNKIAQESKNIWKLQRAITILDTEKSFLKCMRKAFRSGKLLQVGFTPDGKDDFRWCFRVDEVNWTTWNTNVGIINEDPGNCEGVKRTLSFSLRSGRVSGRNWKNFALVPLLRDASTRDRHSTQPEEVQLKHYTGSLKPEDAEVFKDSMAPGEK
Transient receptor potential cation channel subfamily V member 1 (Homo sapiens), sequence (Q8NER1 whole entry): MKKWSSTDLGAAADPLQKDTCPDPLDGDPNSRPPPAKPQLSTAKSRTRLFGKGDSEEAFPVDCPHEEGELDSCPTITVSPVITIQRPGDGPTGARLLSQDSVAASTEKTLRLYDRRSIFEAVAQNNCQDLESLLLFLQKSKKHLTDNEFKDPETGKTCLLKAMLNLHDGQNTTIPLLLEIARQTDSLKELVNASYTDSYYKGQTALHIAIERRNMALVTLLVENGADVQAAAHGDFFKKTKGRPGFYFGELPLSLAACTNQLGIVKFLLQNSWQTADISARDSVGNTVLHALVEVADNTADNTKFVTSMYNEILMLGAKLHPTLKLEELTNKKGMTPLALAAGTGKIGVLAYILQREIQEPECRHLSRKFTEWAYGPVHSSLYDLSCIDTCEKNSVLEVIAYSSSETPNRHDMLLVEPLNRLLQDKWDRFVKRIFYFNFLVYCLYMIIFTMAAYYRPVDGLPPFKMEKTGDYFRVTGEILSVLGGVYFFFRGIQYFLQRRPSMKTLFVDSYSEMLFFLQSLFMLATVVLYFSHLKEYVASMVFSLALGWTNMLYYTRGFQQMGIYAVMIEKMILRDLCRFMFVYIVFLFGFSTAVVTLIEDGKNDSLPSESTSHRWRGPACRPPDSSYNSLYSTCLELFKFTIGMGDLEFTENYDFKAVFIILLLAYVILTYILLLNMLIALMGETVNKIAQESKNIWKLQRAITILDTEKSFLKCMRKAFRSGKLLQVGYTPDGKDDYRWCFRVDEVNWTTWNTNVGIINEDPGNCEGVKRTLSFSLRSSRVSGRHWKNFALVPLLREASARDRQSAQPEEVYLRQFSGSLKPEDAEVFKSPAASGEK

For `O=C(/C=C/c1ccc(O)c(O)c1)CCCCc1ccccc1`, the inhibition (NIH3T3 [1]) was “Active”, the Tmax [2] was 0.17 h and the AUMC [3] was 628.01 ug/L.hr. The AUC(0-t) at 4 h [4] was 1100 ng·h/mL, the Activity [5] was 3.94 µmol/L and the Activity [6] was 33.2 g/L. The Activity (Mus musculus [7]) was “Active; Comparable To Nintedanib”, the Activity (Mus musculus [8]) was “Active” and the AUMC [9] was 2122.825 ug/L.hr. The Cz (Rattus norvegicus) was 0.74 µg/L, the Activity [10] was “Non-toxic” and the Activity [11] was “Active”. The MRT inf [12] was 1.35 h, the inhibition [13] was “Active” and the Activity [14] was 34.5 U/L. For the same compound, the “VRT(t)” value [15] was 0.53 hr2, the AUMCt [16] was 1969.254 ug/L.hr and the Activity [17] was 18.82 µmol/L. The Activity [18] was 125.2 U/L, the CL [19] was 125 mL/min/kg and the Activity [20] was “Non-toxic”. For the same compound, the Activity (Mus musculus [21]) was “Active”, the MRT last at 4 h [22] was 1.22 h and the AUC [23] was 1095.38 ng·h/mL. The Activity [24] was “Dose-dependent-effect”, the Activity [25] was “Non-toxic” and the Activity [26] was 31.2 g/L. For the same compound, the “VRT(t)” value [27] was 0.75 hr2, the MRT inf [28] was 0.793 h and the viability at 24 h, 10 µM [29] was 99.2%. The Activity [30] was 160.5 U/L, the inhibition (NIH3T3 [31]) was “Active” and the Activity [32] was 325.4 µmol/L. For the same compound, the Activity (Mus musculus [33]) was “Active”, the Activity (Mus musculus [34]) was “Active” and the inhibition (NIH3T3 [35]) was “Active”. It also gave a bioavailability [36] of 6.5%.
